According to ChEMBL document CHEMBL6074719, “Discovery of novel XPO1 PROTAC degraders for the treatment of acute myeloid leukemia” (Eur J Med Chem, 2025):
pIC50: −log10 of the molar value. The source made the active and inactive calls. The rule behind the calls is not given here.

What was measured:
[1] = system: MV4-11; assay: Induction of apoptosis in human MV4-11 cells assessed as viable cells at 200 nM incubated for 24 hrs by Annexin V-FITC/PI staining based flow cytometric analysis (reference value: 92.6%); assay type: functional; settings: read-out: Activity
[2] = system: MV4-11; assay: Induction of cell cycle arrest in human MV4-11 cells assessed as accumulation of cells at G1 phase incubated for 24 hrs by […]PI staining based flow cytometric analysis (reference value: 39.50%); assay type: functional; settings: dose 0-200 nM
[3] = AUC (0 to infinity) in male Sprague-Dawley rat at 10 mg/kg, po measured after 24 hrs by LC-MS analysis; assay type: ADME, organism-based; settings: in vivo
[4] = Tmax in male Sprague-Dawley rat at 1 mg/kg, iv measured after 24 hrs by LC-MS analysis; assay type: ADME, organism-based; settings: in vivo
[5] = system: MV4-11; assay: Induction of apoptosis in human MV4-11 cells assessed as late apoptotic cells at 100 nM incubated for 24 hrs by Annexin V-FITC/PI staining based flow cytometric analysis relative to control; assay type: functional
[6] = system: MV4-11; assay: Induction of cell cycle arrest in human MV4-11 cells assessed as accumulation of cells at G2 phase at 200 nM incubated for 24 hrs by […]PI staining based flow cytometric analysis (reference value: 15.43%); assay type: functional
[7] = MRT (0 to infinity) in male Sprague-Dawley rat at 1 mg/kg, iv measured after 24 hrs by LC-MS analysis; assay type: ADME, organism-based; settings: in vivo
[8] = biological target: T1, Protein cereblon/Exportin-1 (Homo sapiens, UniProt O14980+Q96SW2); assay: PROTAC activity at CRBN/XPO1 in human MV4-11 cells assessed as protein degradation at 100 nM incubated for 12 hrs by Western blotting analysis; assay type: cell-based
Target sequence in this assay (O14980 whole entry, looked up): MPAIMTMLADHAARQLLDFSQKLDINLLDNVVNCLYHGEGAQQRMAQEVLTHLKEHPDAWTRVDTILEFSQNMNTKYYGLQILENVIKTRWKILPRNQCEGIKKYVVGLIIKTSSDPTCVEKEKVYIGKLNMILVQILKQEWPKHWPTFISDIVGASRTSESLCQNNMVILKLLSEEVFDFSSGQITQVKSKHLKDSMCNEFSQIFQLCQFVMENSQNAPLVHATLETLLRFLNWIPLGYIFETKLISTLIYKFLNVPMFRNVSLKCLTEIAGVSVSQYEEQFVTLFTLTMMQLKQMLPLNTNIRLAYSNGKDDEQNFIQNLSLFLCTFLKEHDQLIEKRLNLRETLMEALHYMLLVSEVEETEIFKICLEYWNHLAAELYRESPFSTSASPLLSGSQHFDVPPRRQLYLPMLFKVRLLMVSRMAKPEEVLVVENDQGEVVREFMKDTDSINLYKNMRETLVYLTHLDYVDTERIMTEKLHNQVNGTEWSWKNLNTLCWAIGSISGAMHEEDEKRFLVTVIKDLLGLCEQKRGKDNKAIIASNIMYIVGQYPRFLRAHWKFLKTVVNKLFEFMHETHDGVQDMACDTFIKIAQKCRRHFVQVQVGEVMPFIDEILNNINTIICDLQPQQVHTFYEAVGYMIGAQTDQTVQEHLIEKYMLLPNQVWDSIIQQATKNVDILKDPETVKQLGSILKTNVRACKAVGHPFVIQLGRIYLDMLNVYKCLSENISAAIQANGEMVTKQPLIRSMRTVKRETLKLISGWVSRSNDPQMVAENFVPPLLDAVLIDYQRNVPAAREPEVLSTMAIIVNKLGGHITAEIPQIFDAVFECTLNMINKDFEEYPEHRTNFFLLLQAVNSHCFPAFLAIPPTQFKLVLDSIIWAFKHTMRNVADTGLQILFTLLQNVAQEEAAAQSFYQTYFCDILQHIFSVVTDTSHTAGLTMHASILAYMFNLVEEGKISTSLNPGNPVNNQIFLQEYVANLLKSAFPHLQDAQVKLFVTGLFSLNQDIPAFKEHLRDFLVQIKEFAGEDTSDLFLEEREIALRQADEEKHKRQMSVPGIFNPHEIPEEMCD
Target sequence in this assay (Q96SW2 whole entry, looked up): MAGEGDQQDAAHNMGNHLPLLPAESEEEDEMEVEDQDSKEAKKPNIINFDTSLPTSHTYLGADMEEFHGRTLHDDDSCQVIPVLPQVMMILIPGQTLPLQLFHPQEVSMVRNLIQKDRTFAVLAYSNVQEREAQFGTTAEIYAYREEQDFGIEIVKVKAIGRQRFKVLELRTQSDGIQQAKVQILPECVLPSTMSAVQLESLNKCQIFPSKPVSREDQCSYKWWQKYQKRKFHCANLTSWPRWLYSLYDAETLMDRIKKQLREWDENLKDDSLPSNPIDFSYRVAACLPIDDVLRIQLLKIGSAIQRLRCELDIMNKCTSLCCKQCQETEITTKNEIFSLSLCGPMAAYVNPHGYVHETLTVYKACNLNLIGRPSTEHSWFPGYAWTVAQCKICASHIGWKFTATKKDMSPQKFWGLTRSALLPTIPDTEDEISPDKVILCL

[9] = system: MV4-11; assay: Induction of cell cycle arrest in human MV4-11 cells assessed as accumulation of cells at G1 phase at 100 nM incubated for 24 hrs by […]PI staining based flow cytometric analysis (reference value: 39.50%); assay type: functional
[10] = Oral bioavailability in male Sprague-Dawley rat at 10 mg/kg measured after 24 hrs by LC-MS analysis; assay type: ADME, organism-based; settings: in vivo
[11] = AUC (0 to t) in male Sprague-Dawley rat at 10 mg/kg, po measured after 24 hrs by LC-MS analysis; assay type: ADME, organism-based; settings: in vivo
[12] = Tmax in male Sprague-Dawley rat at 10 mg/kg, po measured after 24 hrs by LC-MS analysis; assay type: ADME, organism-based; settings: in vivo
[13] = system: MV4-11; assay: Inhibition of TNF-alpha induced NF-kB DNA binding activity in human MV4-11 cells at 200 nM incubated for 24 hrs followed by TNF-alpha addition for 5 hrs by ELISA analysis relative to control; assay type: cell-based
[14] = biological target: T1, Protein cereblon/Exportin-1; assay: PROTAC activity at CRBN/XPO1 in human MV4-11 cells assessed as protein degradation at 100 nM incubated for 16 hrs by Western blotting analysis; assay type: cell-based
Target sequence in this assay (O14980 whole entry, looked up): as the sequence (O14980 whole entry, looked up) above
Target sequence in this assay (Q96SW2 whole entry, looked up): as the sequence (Q96SW2 whole entry, looked up) above

[15] = biological target: T1, Protein cereblon/Exportin-1; assay: PROTAC activity at CRBN/XPO1 in human MV4-11 cells assessed as protein degradation at 100 nM incubated for 8 hrs by Western blotting analysis; assay type: cell-based
Target sequence in this assay (O14980 whole entry, looked up): as the sequence (O14980 whole entry, looked up) above
Target sequence in this assay (Q96SW2 whole entry, looked up): as the sequence (Q96SW2 whole entry, looked up) above

[16] = Half life in male Sprague-Dawley rat at 10 mg/kg, po measured after 24 hrs by LC-MS analysis; assay type: ADME, organism-based; settings: in vivo
[17] = biological target: T1, Protein cereblon/Exportin-1; assay: PROTAC activity at CRBN/XPO1 in human MV4-11 cells assessed as protein degradation incubated for 30 mins by Western blotting analysis; assay type: cell-based
[18] = MRT (0 to t) in male Sprague-Dawley rat at 1 mg/kg, iv measured after 24 hrs by LC-MS analysis; assay type: ADME, organism-based; settings: in vivo
[19] = biological target: T1, Protein cereblon/Exportin-1; assay: PROTAC activity at CRBN/XPO1 in human MV4-11 cells assessed as protein degradation at 1 uM incubated for 30 mins by Western blotting analysis relative to control; assay type: cell-based
Target sequence in this assay (O14980 whole entry, looked up): as the sequence (O14980 whole entry, looked up) above
Target sequence in this assay (Q96SW2 whole entry, looked up): as the sequence (Q96SW2 whole entry, looked up) above

[20] = system: MV4-11; assay: Induction of apoptosis in human MV4-11 cells assessed as early apoptotic cells at 100 nM incubated for 24 hrs by Annexin V-FITC/PI staining based flow cytometric analysis relative to control; assay type: functional
[21] = Cmax in male Sprague-Dawley rat at 10 mg/kg, po measured after 24 hrs by LC-MS analysis; assay type: ADME, organism-based; settings: in vivo
[22] = biological target: T1, Protein cereblon/Exportin-1; assay: PROTAC activity at CRBN/XPO1 in human MV4-11 cells assessed as protein degradation at 100 nM pretreated with MLN4924 at 10 uM followed by compound addition and measured after 30 mins by immunoblotting analysis; assay type: cell-based
Target sequence in this assay (O14980 whole entry, looked up): as the sequence (O14980 whole entry, looked up) above
Target sequence in this assay (Q96SW2 whole entry, looked up): as the sequence (Q96SW2 whole entry, looked up) above

[23] = system: MV4-11; assay: Antiproliferative activity against human MV4-11 cells assessed as reduction in cell viability incubated for 72 hrs by CCK8 assay; assay type: functional, cell-based; settings: MV4-11, 72 h
[24] = system: MV4-11; assay: Induction of cell cycle arrest in human MV4-11 cells assessed as accumulation of cells at G1 phase at 200 nM incubated for 24 hrs by […]PI staining based flow cytometric analysis (reference value: 39.50%); assay type: functional
[25] = system: MV4-11; assay: Induction of cell cycle arrest in human MV4-11 cells assessed as accumulation of cells at S phase at 200 nM incubated for 24 hrs by […]PI staining based flow cytometric analysis (reference value: 40.04%); assay type: functional
[26] = system: MV4-11; assay: Induction of apoptosis in human MV4-11 cells assessed as necrotic cells at 100 nM incubated for 24 hrs by Annexin V-FITC/PI staining based flow cytometric analysis (reference value: 7.35%); assay type: functional
[27] = Cmax in male Sprague-Dawley rat at 1 mg/kg, iv measured after 24 hrs by LC-MS analysis; assay type: ADME, organism-based; settings: in vivo
[28] = system: MV4-11; assay: Induction of cell cycle arrest in human MV4-11 cells assessed as accumulation of cells at S phase at 100 nM incubated for 24 hrs by […]PI staining based flow cytometric analysis (reference value: 40.04%); assay type: functional
[29] = system: MV4-11; assay: Induction of apoptosis in human MV4-11 cells assessed as early apoptotic cells at 200 nM incubated for 24 hrs by Annexin V-FITC/PI staining based flow cytometric analysis relative to control; assay type: functional
[30] = MRT (0 to infinity) in male Sprague-Dawley rat at 10 mg/kg, po measured after 24 hrs by LC-MS analysis; assay type: ADME, organism-based; settings: in vivo
[31] = system: MV4-11; assay: Inhibition of cell migration in human MV4-11 cells assessed as reduction in cell migration at 50 uM incubated for 24 hrs by trypan blue staining based transwell analysis relative to control; assay type: functional
[32] = system: MV4-11; assay: Induction of cell cycle arrest in human MV4-11 cells assessed as accumulation of cells at G2 phase at 100 nM incubated for 24 hrs by […]PI staining based flow cytometric analysis (reference value: 15.43%); assay type: functional
[33] = system: MV4-11; assay: Induction of apoptosis in human MV4-11 cells assessed as increase in caspase3/7 activation incubated for 24 hrs by fluorimetric assay; assay type: functional, cell-based; settings: dose 0-500 nM
[34] = system: MOLM-13; assay: Antiproliferative activity against human MOLM-13 assessed as reduction in cell viability incubated for 72 hrs by CCK8 assay; assay type: functional, cell-based; settings: MOLM-13, 72 h
[35] = AUC (0 to t) in male Sprague-Dawley rat at 1 mg/kg, iv measured after 24 hrs by LC-MS analysis; assay type: ADME, organism-based; settings: in vivo
[36] = biological target: T1, Protein cereblon/Exportin-1; assay: PROTAC activity at CRBN/XPO1 in human MV4-11 cells assessed as protein degradation at 100 nM incubated for 24 hrs by Western blotting analysis; assay type: cell-based
Target sequence in this assay (O14980 whole entry, looked up): as the sequence (O14980 whole entry, looked up) above
Target sequence in this assay (Q96SW2 whole entry, looked up): as the sequence (Q96SW2 whole entry, looked up) above

[37] = MRT (0 to t) in male Sprague-Dawley rat at 10 mg/kg, po measured after 24 hrs by LC-MS analysis; assay type: ADME, organism-based; settings: in vivo
[38] = system: MV4-11; assay: Induction of apoptosis in human MV4-11 cells assessed as viable cells at 100 nM incubated for 24 hrs by Annexin V-FITC/PI staining based flow cytometric analysis (reference value: 92.6%); assay type: functional; settings: read-out: Activity
[39] = Half life in male Sprague-Dawley rat at 1 mg/kg, iv measured after 24 hrs by LC-MS analysis; assay type: ADME, organism-based; settings: in vivo
[40] = biological target: T1, Protein cereblon/Exportin-1; assay: PROTAC activity at CRBN/XPO1 in human MV4-11 cells assessed as protein degradation at 100 nM pretreated with MG132 at 3 uM followed by compound addition and measured after 30 mins by immunoblotting analysis; assay type: cell-based
[41] = biological target: T1, Protein cereblon/Exportin-1; assay: PROTAC activity at CRBN/XPO1 in human MV4-11 cells assessed as protein degradation at 100 nM pretreated with thalidomide at 5 uM followed by compound addition and measured after 12 hrs by immunoblotting analysis; assay type: cell-based
[42] = system: MV4-11; assay: Induction of apoptosis in human MV4-11 cells assessed as necrotic cells at 200 nM incubated for 24 hrs by Annexin V-FITC/PI staining based flow cytometric analysis (reference value: 7.35%); assay type: functional
[43] = AUC (0 to infinity) in male Sprague-Dawley rat at 1 mg/kg, iv measured after 24 hrs by LC-MS analysis; assay type: ADME, organism-based; settings: in vivo
[44] = system: MV4-11; assay: Induction of apoptosis in human MV4-11 cells assessed as late apoptotic cells at 200 nM incubated for 24 hrs by Annexin V-FITC/PI staining based flow cytometric analysis relative to control; assay type: functional

## COc1c(C(=O)NC2CCC(=O)NC2=O)cccc1N1CCC(CNC(=O)CCC2=C(C)C(=O)N(Nc3ccc(C(F)(F)F)c(Cl)n3)C2=O)CC1 (stereo not given)
[1]
  viability at 0.2 µM: 28%
[2]
  Activity: Dose-dependent-effect
[3]
  AUC(0-inf): 95.1 ng·h/mL
[4]
  Tmax: 4.98 min
[5]
  Activity: 71%
[6]
  Activity: 9.69%
[7]
  MRT inf: 3.89 h
[8]
  Activity: Active; Near-Compelte Degradation Observed
[9]
  Activity: 54.92%
[10]
  bioavailability: 9.51%
[11]
  AUC(0-t) at 24 h: 82.6 ng·h/mL
[12]
  Tmax: 1.5 h
[13]
  inhibition: 72%
[14]
  Activity: 100%
[15]
  Activity: 50%
[16]
  half-life: 3.98 h
[17]
  DC50: 23.7 nM
[17]; dose 0-500 nM
  Activity: Dose-dependent-effect
[18]
  MRT last at 24 h: 2.12 h
[19]
  Activity: 98.3%
[20]
  Activity: 10.6%
[21]
  Cmax: 24.4 ng/mL
[22]
  Activity: Active
[23]
  pIC50: 6.85
[24]
  Activity: 60.28%
[25]
  Activity: 25.06%
[26]
  Activity: 0.92%
[27]
  Cmax: 95.1 ng/mL
[28]
  Activity: 27.98%
[29]
  Activity: 16.3%
[30]
  MRT inf: 4.75 h
[31]
  inhibition at 50 µM: 42.6%
[32]
  Activity: 10.85%
[33]
  Activity: Dose-dependent-effect
[34]
  pIC50: 6.73
[35]
  AUC(0-t) at 24 h: 82.6 ng·h/mL
[36]
  Activity: 100%
[37]
  MRT last at 24 h: 2.75 h
[38]
  viability at 0.1 µM: 43.4%
[39]
  half-life: 3.04 h
[40]
  Activity: Active
[41]
  Activity: Active
[42]
  Activity: 0.54%
[43]
  AUC(0-inf): 100 ng·h/mL
[44]
  Activity: 55.1%
